Laboratory results from US10494343B2, “Organic compound, near-infrared fluorescent constant medium containing same, and method for nano-granulating constant medium” (COLLEGE OF MEDICINE POCHON CHA UNIV. INDUSTRY—ACADEMIC …, priority 2015, dated 2019).

assay: Test Example 1: optical properties of contrast medium according to Preparation Example 2; assay type: physicochemical; parameters: unit not given here; settings: conventional contrast medium, solvent not stated
Procedure: Contrast media were prepared by dissolving compound H per se according to Example 8 in various organic solvents without manufacturing core-shell nanoparticles.
Test Example 1—Evaluation on Optical Properties of Contrast Medium According to Preparation Example 2
The absorption intensity, absorption wavelength, emission wavelength, and quantum yield (ϕf) of the contrast media prepared in Preparation Example 2 are shown in the Table 2.

quantum efficiency (χf)	Compound
2.58	CC1(C)C(/C=C/C=C/C=C/C=C2\N(CCCCS(=O)(=O)O)c3ccc4ccccc4c3C2(C)C)=[N+](CCCCS(=O)(=O)[O-])c2ccc3ccccc3c21 [indocyanine green]

assay: Absorption/emission wavelength of the compounds (Table 1); assay type: physicochemical; settings: DMSO

Absorption wavelength [nm]	Emission wavelength [nm]	Compound
856	905	3-ethyl-2-((E)-2-((E)-3-((E)-2-(3-ethyl-7-methoxy-1,1-dimethyl-1H-benzo[e]indol-2(3H)-ylidene)ethylidene)-2-(4-(2-isothiocyantoethylcarbamoyl)phenylthio)-5-(1-methoxy-2-methyl-1-oxopropan-2-yl)cyclohex-1-enyl) vinyl)-7-methoxy-1,1-dimethyl-1H-benzo[e]indolium iodide [Compound J]
843	876	CCN1/C(=C/C=C2\CC(c3ccc(C(=O)OC)cc3)CC(/C=C/C3=[N+](CC)c4ccc5cc(OC)ccc5c4C3(C)C)=C2Cl)C(C)(C)c2c1ccc1cc(OC)ccc21.[I-] (stereo not shown) [C, 2-((E)-2-((E)-2-chloro-3-((E)-2-(3-ethyl-7-methoxy-1,1-dimethyl-1H-benzo[e]indol-2(3H)-ylidene)ethylidene)-5-(4-(methoxycarbonyl)phenyl)cyclohex-1-enyl)vinyl)-3-ethyl-7-methoxy-1,1-dimethyl-1H-benzo[e]indolium iodide]
833	865	CCN1/C(=C/C=C2\CC(c3ccc(C(=O)OC)cc3)CC(/C=C/C3=[N+](CC)c4ccc5cc(S(=O)(=O)O)ccc5c4C3(C)C)=C2Cl)C(C)(C)c2c1ccc1cc(S(=O)(=O)O)ccc21 (stereo not shown) [Compound A, 2-((E)-2-((E)-2-chloro-3-((E)-2-(3-ethyl-1,1-dimethyl-7-sulfo-1H-benzo[e]indo-1-2(3H)-ylidene)ethylidene)-5-(4-(methoxycarbonyl)phenyl)cyclohex-1-enyl)vinyl)-3-ethyl-1,1-dimethyl-1H-benzo[e]indolium-7-sulfonate]
831	863	CCN1/C(=C/C=C2\CC(c3ccc(C(=O)OC)cc3)CC(/C=C/C3=[N+](CC)c4ccc5cc(Br)ccc5c4C3(C)C)=C2Cl)C(C)(C)c2c1ccc1cc(Br)ccc21.[I-] (stereo not shown) [Compound B, 7-bromo-2-((E)-2-((E)-3-((E)-2-(7-bromo-3-ethyl-1,1-dimethyl-1H-benzo[e]indol-2(3H)-ylidene)ethylidene)-2-chloro-5-(4-(methoxycarbonyl)phenyl)cyclohex-1-enyl)vinyl)-3-ethyl-1,1-dimethyl-1H-benzo[e]indolium iodide]
833	861	CCN1/C(=C/C=C2\CC(C(C)(C)C(=O)OC)CC(/C=C/C3=[N+](CC)c4ccc5cc(S(=O)(=O)O)ccc5c4C3(C)C)=C2Cl)C(C)(C)c2c1ccc1cc(S(=O)(=O)O)ccc21 (stereo not shown) [Compound D, 2-((E)-2-((E)-2-chloro-3-((E)-2-(3-ethyl-1,1-dimethyl-7-sulfo-1H-benzo[e]indol-2(3H)-ylidene)ethylidene)-5-(1-methoxy-2-methyl-1-oxopropan-2-yl)cyclohex-1-enyl)vinyl)-3-ethyl-1,1-dimethyl-1H-benzo[e]indolium-7-sulfonate]
833	865	CCN1/C(=C/C=C2\CC(C(C)(C)C(=O)OC)CC(/C=C/C3=[N+](CC)c4ccc5cc(Br)ccc5c4C3(C)C)=C2Cl)C(C)(C)c2c1ccc1cc(Br)ccc21.[I-] (stereo not shown) [Compound E, 7-bromo-2-((E)-2-((E)-3-((E)-2-(7-bromo-3-ethyl-1,1-dimethyl-1H-benzo[e]indol-2(3H)-ylidene)ethylidene)-2-chloro-5-(1-methoxy-2-methyl-1-oxopropan-2-yl)cyclohex-1-enyl)vinyl)-3-ethyl-1,1-dimethyl-1H-benzo[e]indolium iodide]
843	881	CCN1/C(=C/C=C2\CC(C(C)(C)C(=O)OC)CC(/C=C/C3=[N+](CC)c4ccc5cc(OC)ccc5c4C3(C)C)=C2Cl)C(C)(C)c2c1ccc1cc(OC)ccc21.[I-] (stereo not shown) [Compound F, 2-((E)-2-((E)-2-chloro-3-((E)-2-(3-ethyl-7-methoxy-1,1-dimethyl-1H-benzo[e]indol-2(3H)-ylidene)ethylidene)-5-(1-methoxy-2-methyl-1-oxopropan-2-yl)cyclohex-1-enyl)vinyl)-3-ethyl-7-methoxy-1,1-dimethyl-1H-benzo[e]indolium iodide]
849	883	CCN1/C(=C/C=C2\CC(C(C)(C)C(=O)OC)CC(/C=C/C3=[N+](CC)c4ccc5cc(S(=O)(=O)[O-])ccc5c4C3(C)C)=C2Sc2ccc(C(=O)O)cc2)C(C)(C)c2c1ccc1cc(S(=O)(=O)O)ccc21 (stereo not shown) [Compound G, 2-((E)-2-((E)-2-(4-carboxyphenylthio)-3-((E)-2-(3-ethyl-1,1-dimethyl-7-sulfo-1H-benzo[e]indol-2(3H)-ylidene)ethylidene)-5-(1-methoxy-2-methyl-1-oxopropan-2-yl)cyclohex-1-enyl)vinyl)-3-ethyl-1,1-dimethyl-1H-benzo[e]indolium-7-sulfonate]
857	900	CCN1/C(=C/C=C2\CC(C(C)(C)C(=O)OC)CC(/C=C/C3=[N+](CC)c4ccc5cc(OC)ccc5c4C3(C)C)=C2Sc2ccc(C(=O)[O-])cc2)C(C)(C)c2c1ccc1cc(OC)ccc21 (stereo not shown) [Compound H, 4-((E)-6-((E)-2-(3-ethyl-7-methoxy-1,1-dimethyl-1H-benzo[e]indol-2(3H)-ylidene)ethylidene)-2-((E)-2-(3-ethyl-7-methoxy-1,1-dimethyl-1H-benzo[e]indolium-2-yl)vinyl)-4-(1-methoxy-2-methyl-1-oxopropan-2-yl)cyclohex-1-enylthio)benzoate]
857	889	CCN1/C(=C/C=C2\CC(C(C)(C)C(=O)OC)CC(/C=C/C3=[N+](CC)c4ccc5cc(OC)ccc5c4C3(C)C)=C2Sc2ccc(C(=O)NCCN)cc2)C(C)(C)c2c1ccc1cc(OC)ccc21.[I-] (stereo not shown) [Compound I, 2-((E)-2-((E)-2-(4-(2-aminoethylcarbamoyl)phenylthio)-3-((E)-2-(3-ethyl-7-methoxy-1,1-dimethyl-1H-benzo[e]indol-2(3H)-ylidene)ethylidene)-5-(1-methoxy-2-methyl-1-oxopropan-2-yl)cyclohex-1-enyl)vinyl)-3-ethyl-7-methoxy-1,1-dimethyl-1H-benzo[e]indolium iodide]
857	901	CCN1/C(=C/C=C2\CCCC(/C=C/C3=[N+](CC)c4ccc5cc(OC)ccc5c4C3(C)C)=C2Sc2ccc(C(=O)NCCN)cc2)C(C)(C)c2c1ccc1cc(OC)ccc21.[I-] [Compound K, 2-((E)-2-((E)-2-(4-(2-aminoethylcarbamoyl)phenylthio)-3-((E)-2-(3-ethyl-7-methoxy-1,1-dimethyl-1H-benzo[e]indol-2(3H)-ylidene)ethylidene)cyclohex-1-enyl)vinyl)-3-ethyl-7-methoxy-1,1-dimethyl-1H-benzo[e]indolium iodide]
857	896	CCN1/C(=C/C=C2\CC(C(C)(C)C)CC(/C=C/C3=[N+](CC)c4ccc5cc(OC)ccc5c4C3(C)C)=C2Sc2ccc(C(=O)NCCN)cc2)C(C)(C)c2c1ccc1cc(OC)ccc21.[I-] (stereo not shown) [Compound L, 2-((E)-2-((E)-2-(4-(2-aminoethylcarbamoyl)phenylthio)-5-tert-butyl-3-((E)-2-(3-ethyl-7-methoxy-1,1-dimethyl-1H-benzo[e]indol-2(3H)-ylidene)ethylidene)cyclohex-1-enyl)vinyl)-3-ethyl-7-methoxy-1,1-dimethyl-1H-benzo[e]indolium iodide]
